Test [1] concerns the target T1, myeloperoxidase (MPO) (Homo sapiens (Human), UniProt P05164). The test can be described thus: MPO peroxidation assay (Amplex Red). It is filed as biochemical. The settings on record: Table 1. On the procedure:
MPO peroxidation activity was measured in 100 mM KPi (pH 7.4) by utilizing the non-fluorescent reagent Amplex Red (Invitrogen catalog #A12222) which can be oxidized to the highly fluorescent resorufin. Amplex Red is oxidized by the peroxidase action of MPO to resorufin. Reactions were carried out in 50 μL total volume by adding a 25 μL mixture of 200 pM myeloperoxidase and 40 nM H2O2 (Sigma #349887) to 100 nL inhibitor in 100% DMSO in a 384 well Perkin Elmer Optiplate. Enzyme and compound were preincubated for ten minutes at rt.
After the ten minute preincubation, 25 μL of an Amplex Red mixture containing 200 μM Amplex Red and 10 mM H2O2 was added to the plate. Kinetic determinations were carried out immediately on a Perkin Elmer Envision (15 minute kinetic read, Ex: 535 nm, Em: 590 nm).
IC50 values were calculated by determining the slope of the linear portion of the kinetic trace (180-540 secs), and using that calculated slope to determine % inhibition occurring at each concentration of inhibitor using the following equation:
[formula] where A=minimal Y value (activity level of inhibited sample), B=maximal Y value (activity level of uninhibited sample), C=Log IC50, D=Hill Slope, x=concentration of inhibitor. MPO Chlorination Assay

The target in test [2] is T1, myeloperoxidase (MPO). The test can be described thus: MPO chlorination assay (APF). The class given is biochemical. In a few lines: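 Human MPO (200 pM) with 120 mM NaCl preincubated with inhibitor 10 minutes at rt in 100 mM KPi pH 7.4. Reaction started with APF mixture containing 10 μM H2O2; fluorescein fluorescence (ex 485/em 535 nm) read kinetically 3 minutes. IC50 from slopes of linear kinetic portion, fitted with a four-parameter Hill equation.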

Where [3] appears, read: MPO chlorination assay (APF), Table 1, read-out: APF IC50.
[4] abbreviates: MPO chlorination assay, ranges given, read-out: MPO chlorination assay IC50.

These results are taken from US10981879B2, “Thioether triazolopyridine and triazolopyrimidine inhibitors of myeloperoxidase” (BRISTOL-MYERS SQUIBB COMPANY, priority 2014, dated 2021).

Each structure is given as a SMILES string.

T1 sequence (P05164 49-745): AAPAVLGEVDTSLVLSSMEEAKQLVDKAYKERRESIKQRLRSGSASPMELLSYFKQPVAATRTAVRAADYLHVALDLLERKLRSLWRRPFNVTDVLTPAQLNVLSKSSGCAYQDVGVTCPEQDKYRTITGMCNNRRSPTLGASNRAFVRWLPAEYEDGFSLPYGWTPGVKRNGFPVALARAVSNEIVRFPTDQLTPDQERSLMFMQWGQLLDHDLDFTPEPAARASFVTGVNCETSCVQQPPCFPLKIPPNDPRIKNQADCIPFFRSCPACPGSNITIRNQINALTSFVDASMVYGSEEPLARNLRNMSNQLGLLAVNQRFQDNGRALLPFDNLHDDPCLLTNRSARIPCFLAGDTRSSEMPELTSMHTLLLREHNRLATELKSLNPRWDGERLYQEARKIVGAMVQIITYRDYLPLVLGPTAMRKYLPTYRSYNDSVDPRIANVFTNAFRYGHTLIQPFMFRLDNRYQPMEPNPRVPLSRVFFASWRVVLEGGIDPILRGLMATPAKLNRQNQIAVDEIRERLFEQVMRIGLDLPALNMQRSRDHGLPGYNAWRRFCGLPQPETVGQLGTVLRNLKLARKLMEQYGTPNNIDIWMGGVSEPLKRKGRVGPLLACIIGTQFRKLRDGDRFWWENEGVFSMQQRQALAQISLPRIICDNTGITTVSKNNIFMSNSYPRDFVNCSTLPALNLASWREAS

By IC50 is commonly meant the point on the concentration scale where inhibition reaches its midpoint. `Nc1cc(SCc2ccccc2F)c2nn[nH]c2n1` [Example 3, 7-((2-fluorobenzyl)thio)-3H-[1,2,3]triazolo [4,5-b]pyridin-5-amine]: the IC50 was determined as 7 nM against myeloperoxidase (MPO) [1] and 10 nM on myeloperoxidase (MPO) [2] (setting [3]). For the molecule `Nc1cc(SCc2cc(F)c(-c3ncon3)cc2F)c2nn[nH]c2n1` [Example 28, 7-((2,5-difluoro-4-(1,2,4-oxadiazol-3-yl)benzyl)thio)-3H-[1,2,3]triazolo[4,5-b] pyridin-5-amine], the concentration for half-maximal inhibition (IC50) against myeloperoxidase (MPO) [1] came out at 10 nM; at myeloperoxidase (MPO) [2] (setting [3]), 80 nM. On to `Nc1cc(SCc2cc(C(F)(F)F)ccc2C(F)(F)F)c2nn[nH]c2n1` [Example 39, 7-((2,5-bis(trifluoromethyl)benzyl)thio)-3H-[1,2,3] triazolo[4,5-b]pyridin-5-amine], for which the IC50 stood at 10 nM at myeloperoxidase (MPO) [1] and 20 nM at myeloperoxidase (MPO) [2] (setting [3]). Taken in the same sequence, the figures for `Nc1cc(SCc2ccccc2-n2cccn2)c2nn[nH]c2n1` [Example 41, 7-((2-(1H-pyrazol-1-yl)benzyl)thio)-3H-[1,2,3] triazolo[4,5-b]pyridin-5-amine] were 20 nM and 80 nM. Taken in the same sequence, the figures for `CCC(Sc1cc(N)nc2[nH]nnc12)c1ccccc1` (stereo not drawn) [Example 45, 7-((1-phenylpropyl)thio)-3H-[1,2,3]triazolo[4,5-b] pyridin-5-amine] were 20 nM and 80 nM. For `Nc1cc(SCc2ncccn2)c2nn[nH]c2n1` [Example 57, 7-((pyrimidin-2-ylmethyl)thio)-3H-[1,2,3]triazolo[4,5-b]pyridin-5-amine], in that order: 100 nM and 500 nM.

`Nc1cc(SCc2cc(F)ccc2OC(F)(F)F)c2nn[nH]c2n1` [Example 66, 7-((5-fluoro-2-(trifluoromethoxy)benzyl)thio)-3H-[1,2,3]triazolo[4,5-b]pyridin-5-amine]: the figures for the IC50 at myeloperoxidase (MPO) [1] and at myeloperoxidase (MPO) [2] (setting [3]) were 10 nM and 20 nM, respectively.

Take `CCOC(=O)c1cc(CSc2cc(N)nc3[nH]nnc23)n(C)n1` [Example 70, ethyl 5-(((5-amino-3H-[1,2,3]triazolo[4,5-b]pyridin-7-yl)thio)methyl)-1-methyl-1H-pyrazole-3-carboxylate]: the half-maximal inhibitory concentration (IC50) was determined as 50 nM at myeloperoxidase (MPO) [1] and 760 nM on myeloperoxidase (MPO) [2] (setting [3]). As for `Cc1nn(-c2ccc(F)cc2)c(C)c1CSc1cc(N)nc2[nH]nnc12` [Example 72, 7-(((1-(4-fluorophenyl)-3,5-dimethyl-1H-pyrazol-4-yl)methyl)thio)-3H-[1,2,3] triazolo[4,5-b]pyridin-5-amine], the figures for the IC50 against myeloperoxidase (MPO) [1] and on myeloperoxidase (MPO) [2] (setting [3]) were 460 nM and 580 nM, respectively. For `Cc1ncn(C)c1CSc1cc(N)nc2[nH]nnc12` [Example 77, 7-(((1,4-dimethyl-1H-imidazol-5-yl)methyl)thio)-3H-[1,2,3]triazolo[4,5-b] pyridin-5-amine], in that order: 140 nM and 610 nM. Consider `Cc1nn(-c2ccccc2)c(Cl)c1CSc1cc(N)nc2[nH]nnc12` [Example 79, 7-(((5-chloro-3-methyl-1-phenyl-1H-pyrazol-4-yl)methyl)thio)-3H-[1,2,3] triazolo[4,5-b]pyridin-5-amine], for which the IC50 against myeloperoxidase (MPO) [1] was 30 nM; at myeloperoxidase (MPO) [2] (setting [3]), 7 nM. Taken in the same sequence, the figures for `N#Cc1ccc(C2CC2)c(CSc2cc(N)nc3[nH]nnc23)c1` [Example 88, 3-(((5-amino-3H-[1,2,3]triazolo[4,5-b]pyridin-7-yl)thio)methyl)-4-cyclopropylbenzonitrile] were 30 nM and 9 nM.

For `Nc1cc(SCc2ccccc2CN2CCC(Oc3ccccc3)C2)c2nn[nH]c2n1` (stereo not drawn) [Example 98, 7-((2-((3-phenoxypyrrolidin-1-yl)methyl)benzyl)thio)-3H-[1,2,3]triazolo[4,5-b] pyridin-5-amine], the half-maximal inhibitory concentration (IC50) against myeloperoxidase (MPO) [1] was 530 nM; at myeloperoxidase (MPO) [2] (setting [3]), 640 nM. On to `Nc1cc(SCc2cn(-c3cnc(C(=O)N4CCC4)cn3)nc2C(F)F)c2nn[nH]c2n1` [Example 146], for which the IC50 on myeloperoxidase (MPO) [2] (setting [4]) lay in the range of 200 to 1000 nM.

With `N#Cc1cn(-c2ccccc2)nc1CSc1cc(N)nc2[nH]nnc12` [Example 147, 3-(((5-amino-3H-[1,2,3]triazolo[4,5-b]pyridin-7-yl)thio)methyl)-1-phenyl-1H-pyrazol-4-carbonitrile], the concentration for half-maximal inhibition (IC50) at myeloperoxidase (MPO) [2] (setting [4]) lay within 200 to 1000 nM. Still for that read-out and setting: in the case of `CN(C)Cc1cccc(-n2cc(CSc3cc(N)nc4[nH]nnc34)c(C(F)F)n2)c1` [Example 148, 7-(((3-(difluoromethyl)-1-(3-((dimethylamino)methyl)phenyl)-1H-pyrazol-4-yl)methyl)thio)-3H-[1,2,3]triazolo [4,5-b]pyridin-5-amine] it was at most 60 nM.

On to `CN(C)CCNC(=O)c1cccc(-n2cc(CSc3cc(N)nc4[nH]nnc34)c(C(F)F)n2)c1` [Example 149, 3-(4-(((5-amino-3H-[1,2,3]triazolo[4,5-b]pyridin-7-yl)thio)methyl)-3-(difluoromethyl)-1H-pyrazol-1-yl)-N-(2-(dimethylamino)ethyl) benzamide], for which the IC50 at myeloperoxidase (MPO) [2] (setting [4]) was 60 to 200 nM.

In the case of `CN(C)Cc1ccccc1-n1cc(CSc2cc(N)nc3[nH]nnc23)c(C(F)F)n1` [Example 150, 7-(((3-(difluoromethyl)-1-(2-((dimethylamino)methyl)phenyl)-1H-pyrazol-4-yl)methyl)thio)-3H-[1,2,3]triazolo [4,5-b]pyridin-5-amine], the IC50 on myeloperoxidase (MPO) [2] (setting [4]) was at most 60 nM. Same read-out and setting: in the case of `CN(C)CCNC(=O)c1ccccc1-n1cc(CSc2cc(N)nc3[nH]nnc23)c(C(F)F)n1` [Example 151, 2-(4-(((5-amino-3H-[1,2,3]triazolo[4,5-b]pyridin-7-yl)thio)methyl)-3-(difluoromethyl)-1H-pyrazol-1-yl)-N-(2-(dimethylamino)ethyl) benzamide] it was at most 60 nM. On myeloperoxidase (MPO) [2], `Nc1cc(SCc2cn(-c3cnccn3)nc2C(F)F)c2nn[nH]c2n1` [Example 152, 7-(((3-(difluoromethyl)-1-(pyrazin-2-yl)-1H-pyrazol-4-yl)methyl)thio)-3H-[1,2,3]triazolo [4,5-b]pyridin-5-amine] displayed an IC50 of 200 to 1000 nM. On the same count and under the same terms, to `Nc1cc(SCc2nn(-c3ccccc3)nc2C(F)F)c2nn[nH]c2n1` [Example 153, 7-(((5-(difluoromethyl)-2-phenyl-2H-1,2,3-triazol-4-yl)methyl)thio)-3H-[1,2,3]triazolo [4,5-b]pyridin-5-amine] belongs 60 to 200 nM. As for `N#Cc1cccc(F)c1CSc1nc(N)nc2[nH]nnc12` [Example 154, 2-(((5-Amino-3H-[1,2,3]triazolo[4,5-d]pyrimidin-7-yl)thio)methyl)-3-fluorobenzonitrile], the IC50 at myeloperoxidase (MPO) [2] (setting [4]) lay in the range of 60 to 200 nM.

For `Nc1nc(SCc2ccccc2)c2nn[nH]c2n1` [Example 155, 7-(benzylthio)-3H-[1,2,3] triazolo[4,5-d]pyrimidin-5-amine], the 50% inhibitory concentration (IC50) at myeloperoxidase (MPO) [2] (setting [4]) lay in the range of 60 to 200 nM. Same read-out and setting: to `Cc1nn(-c2ccccc2)c(Cl)c1CSc1nc(N)nc2[nH]nnc12` [Example 156, 7-(((5-chloro-3-methyl-1-phenyl-1H-pyrazol-4-yl)methyl)thio)-3H-[1,2,3] triazolo[4,5-b]pyrimidin-5-amine] belongs 60 to 200 nM; to `N#Cc1ccc(F)cc1CSc1nc(N)nc2[nH]nnc12` [Example 157, 2-(((5-amino-3H-[1,2,3]triazolo[4,5-d]pyrimidin-7-yl)thio)methyl)-4-fluorobenzonitrile], 200 to 1000 nM. On the same count and under the same terms, in the case of `Nc1nc(SCc2ccccc2-n2cccn2)c2nn[nH]c2n1` [Example 158, 7-((2-(1H-pyrazol-1-yl)benzyl)thio)-3H-[1,2,3] triazolo[4,5-d]pyrimidin-5-amine] it was 200 to 1000 nM; in that of `Cc1nn(Cc2ccccc2)c(Cl)c1CSc1nc(N)nc2[nH]nnc12` [Example 159, 7-(((1-benzyl-5-chloro-3-methyl-1H-pyrazol-4-yl)methyl)thio)-3H-[1,2,3] triazolo[4,5-d]pyrimidin-5-amine], 200 to 1000 nM.

In the case of `Cn1nc(C(F)(F)F)c(CSc2nc(N)nc3[nH]nnc23)c1F` [Example 160, 7-(((5-fluoro-1-methyl-3-(trifluoromethyl)-1H-pyrazol-4-yl)methyl)thio)-3H-[1,2,3]triazolo[4,5-d] pyrimidin-5-amine], the IC50 on myeloperoxidase (MPO) [2] (setting [4]) is 200 to 1000 nM.

Regarding `N#Cc1ccc(C2CC2)c(CSc2nc(N)nc3[nH]nnc23)c1` [Example 161, 3-(((5-amino-3H-[1,2,3]triazolo[4,5-d]pyrimidin-7-yl)thio)methyl)-4-cyclopropylbenzonitrile], the IC50 on myeloperoxidase (MPO) [2] (setting [4]) was 200 to 1000 nM. As for `Cn1ncc2c(CSc3nc(N)nc4[nH]nnc34)cccc21` [Example 162, 7-(((1-methyl-1H-indazol-4-yl)methyl)thio)-3H-[1,2,3]triazolo[4,5-d] pyrimidin-5-amine], the half-maximal inhibitory concentration (IC50) at myeloperoxidase (MPO) [2] (setting [4]) lay within 200 to 1000 nM. As to `Cn1ncc(CSc2nc(N)nc3[nH]nnc23)c1C(F)(F)F` [Example 163, 7-(((1-methyl-5-(trifluoromethyl)-1H-pyrazol-4-yl)methyl)thio)-3H-[1,2,3]triazolo[4,5-d] pyrimidin-5-amine], the half-inhibitory concentration (IC50) at myeloperoxidase (MPO) [2] (setting [4]) was in the range of 200 to 1000 nM. With `Cn1nc(C2CC2)cc1CSc1nc(N)nc2[nH]nnc12` [Example 165, 7-(((3-cyclopropyl-1-methyl-1H-pyrazol-5-yl)methyl)thio)-3H-[1,2,3] triazolo[4,5-d]pyrimidin-5-amine], the half-inhibitory concentration (IC50) at myeloperoxidase (MPO) [2] (setting [4]) fell in the range of 200 to 1000 nM.
